Data taken from PMC13421293 (Thrombosis and Haemostasis, 2025).
One block for each molecule: values may come before it.

Experiments:
[1] = tested on: platelet reactivity; assay: Platelet reactivity by multiple electrode aggregometry (Multiplate) in unstable angina patients
[2] = Concentrations of ticagrelor and active metabolite AR-C124910XX by LC-MS in unstable angina patients; conditions: for AUC: AUC TPC, total exposure to ticagrelor, area under the ticagrelor plasma concentration curve, 0–360 min; for concentration at 15 min: 15 min post ticagrelor LD 180 mg; for concentration at 30 min: 30 min post ticagrelor LD 180 mg; for concentration at 45 min: 45 min post ticagrelor LD 180 mg; for concentration at 60 min: 60 min post ticagrelor LD 180 mg; for concentration at 120 min: 120 min post ticagrelor LD 180 mg; for concentration at 240 min: 240 min post ticagrelor LD 180 mg; for concentration at 360 min: 360 min post ticagrelor LD 180 mg
[3] = tested on: canine platelet; parameters: method as in PMID 5554584; conditions: commonly used concentrations; cited from earlier work
[4] = 15 min post ticagrelor LD 180 mg, MEA
[5] = 30 min post ticagrelor LD 180 mg, MEA
[6] = 45 min post ticagrelor LD 180 mg, MEA
[7] = 60 min post ticagrelor LD 180 mg, MEA
[8] = 120 min post ticagrelor LD 180 mg, MEA
[9] = 180 min post ticagrelor LD 180 mg, MEA
[10] = 240 min post ticagrelor LD 180 mg, MEA
[11] = time to reach low platelet reactivity after ticagrelor LD, MEA
[12] = 0–360 min post ticagrelor LD 180 mg
[13] = human, plasma, oral, 180 mg, Ticagrelor plasma concentration, Mean ± SD
[14] = human, plasma, oral, 180 mg, Ticagrelor plasma concentration, Median (Q1–Q3)

Ticagrelor maximum concentration, Mean ± SD [2, 12]: 699 ± 257 ng/mL
Ticagrelor maximum concentration, Median (Q1–Q3) [2, 12]: 680 (514–800) ng/mL
Ticagrelor plasma concentration, Mean ± SD ([2]; baseline): 0 ng/mL
Ticagrelor plasma concentration, Median (Q1–Q3) ([2]; baseline): 0 ng/mL
AUC ([2]; human, plasma, oral, 180 mg, Mean ± SD): 2310 ng·h/mL
AUC ([2]; human, plasma, oral, 180 mg, Median (Q1–Q3)): 2070 ng·h/mL
concentration at 15 min [2, 13]: 20 ± 29 ng/mL
concentration at 30 min [2, 13]: 171 ± 237 ng/mL
concentration at 45 min [2, 13]: 329 ± 353 ng/mL
concentration at 60 min [2, 13]: 464 ± 379 ng/mL
concentration at 120 min [2, 13]: 533 ± 243 ng/mL
concentration at 240 min [2, 13]: 404 ± 136 ng/mL
concentration at 360 min [2, 13]: 291 ± 94 ng/mL
concentration at 15 min [2, 14]: 13 ng/mL
concentration at 30 min [2, 14]: 69 ng/mL
concentration at 45 min [2, 14]: 210 ng/mL
concentration at 60 min [2, 14]: 316 ng/mL
concentration at 120 min [2, 14]: 569 ng/mL
concentration at 180 min ([2]; human, plasma, oral, 180 mg, Ticagrelor plasma concentration, Median (Q1–Q3), 180 min post ticagrelor LD 180 mg): 453 ng/mL
concentration at 240 min [2, 14]: 402 ng/mL
concentration at 360 min [2, 14]: 290 ng/mL
SMILES: CCCSc1nc(N[C@@H]2C[C@H]2c2ccc(F)c(F)c2)c2nnn([C@@H]3C[C@H](OCCO)[C@@H](O)[C@H]3O)c2n1 [Ticagrelor, ticagrelor]
AUC 15 (platelet reactivity), Mean ± SD [1, 4]: 66.08 ± 26.54 U
AUC 15 (platelet reactivity), Median (Q1–Q3) [1, 4]: 66 (48–87) U
AUC 30 (platelet reactivity), Mean ± SD [1, 5]: 47.76 ± 27.79 U
AUC 30 (platelet reactivity), Median (Q1–Q3) [1, 5]: 36 (27–66) U
AUC 45 (platelet reactivity), Mean ± SD [1, 6]: 34.56 ± 22.95 U
AUC 45 (platelet reactivity), Median (Q1–Q3) [1, 6]: 28 (17–36) U
AUC 60 (platelet reactivity), Mean ± SD [1, 7]: 26.64 ± 17.75 U
AUC 60 (platelet reactivity), Median (Q1–Q3) [1, 7]: 26 (16–32) U
AUC 120 (platelet reactivity), Mean ± SD [1, 8]: 21.6 ± 13.37 U
AUC 120 (platelet reactivity), Median (Q1–Q3) [1, 8]: 21 (17–25) U
AUC 180 (platelet reactivity), Mean ± SD [1, 9]: 21.32 ± 12.03 U
AUC 180 (platelet reactivity), Median (Q1–Q3) [1, 9]: 22 (13–28) U
AUC 240 (platelet reactivity), Mean ± SD [1, 10]: 23.76 ± 16.86 U
AUC 240 (platelet reactivity), Median (Q1–Q3) [1, 10]: 22 (17–26) U
AUC 360 (platelet reactivity), Median (Q1–Q3) ([1]; 360 min post ticagrelor LD 180 mg, MEA): 19 (12–25) U
AUC 0 (platelet reactivity), Median (Q1–Q3) ([1]; baseline, MEA, UA patients): 73 (54–95) U
AUC 0 (platelet reactivity, area under the aggregation curve), Mean ± SD ([1]; baseline, MEA, UA patients): 76.36 ± 21.82 U
Time to AUC < 46 U, Mean ± SD [1, 11]: 43.8 ± 46.42
Time to AUC < 46 U, Median (Q1–Q3) [1, 11]: 30 (30–45)

SMILES: [N-]=[N+]=O [nitrous oxide]
ADP-induced canine platelet aggregation [3]: significant reduction

SMILES: CCOCC [diethyl ether]
ADP-induced canine platelet aggregation [3]: significant reduction

SMILES: FC(F)(F)C(Cl)Br (stereo not drawn) [halothane]
ADP-induced canine platelet aggregation [3]: significant reduction

SMILES: COC(F)(F)C(Cl)Cl [methoxyflurane]
ADP-induced canine platelet aggregation [3]: significant reduction
effect on platelet reactivity ([1]; methoxyflurane added to ticagrelor LD vs ticagrelor alone, MEA AUC): inhibitory effect
